Source: patent US20220117919A1, “ENHANCED BIOAVAILABILITY OF N-(2,6-BIS(1-METHYLETHYL)PHENYL)-N'-((1-(4-(DIMETHYLAMINO)-PHENYL)CYCLOPENTYL)METHYL)UREA HYDROCHLORIDE” (The Regents of the University of Michigan, priority 2015, published 2022)
Where “and” joins values, the source holds several entries; their conditions need not be identical. Equal entries are not always repeated. Structures can show the parent of a compound that is named as a salt. Where two headings read alike, the source gives them in different places.

Test: Food and acidic beverage effect on bioavailability of ATR-101 tablets, 3-way crossover plasma PK study
Assay type: in vivo, human
Conditions: for kel: in h-1; for AUC0-t Ratio C/A: fasting with acidic beverage vs fasting with water; for AUC0-t Ratio B/C: fed with water vs fasting with acidic beverage; for AUC0-t Ratio B/A: fed with water vs fasting with water
Description: To evaluate the effects of food and of an acidic beverage on bioavailability of ATR-101 tablets prepared according to Example 2 (see Table 2), an open-label, randomized, 3-period, 3-way crossover, 3-sequence study was carried out with fourteen healthy, adult, non-tobacco using male and female (non-childbearing potential only) human subjects.
Three different treatments A, B, and C were administered as follows:
Treatment A: 500 mg ATR-101 (1×500 mg tablet) administered with water at Hour 0 on Day 1 following an overnight fast.
Treatment B: 500 mg ATR-101 (1×500 mg tablet) administered with water at Hour 0, 30 minutes after the start of a high-fat breakfast, on Day 1.
Treatment C: 500 mg ATR-101 (1×500 mg tablet) administered with Coca-Cola® Classic at Hour 0 on Day 1 following an overnight fast.
On Day 1 of Period 1, subjects were randomized to one of 3 treatment sequences: ABC, BCA, or CBA. For Treatments A and B, ATR-101 was administered orally with approximately 240 mL of water. For Treatment C, ATR-101 was administered orally with approximately 240 mL of Coca-Cola® Classic. Water (except water provided with dosing for Treatments A and B) was restricted 1 hour prior to and 1 hour after each study drug administration, but was allowed ad libitum at all other times. Other fluids were given as part of the standard meals (including the breakfast administered prior to study drug dosing for Treatment B) and/or snacks, but were restricted at all other times (except for the Coca-Cola® Classic beverage provided with dosing in Treatment C) throughout the confinement period.
For Treatments A and C, subjects fasted overnight for at least 10 hours prior to study drug administration and continued the fast for at least 4 hours post-dose.
For Treatment B, subjects were required to fast overnight for at least 10 hours until 30 minutes prior to study drug administration, when they were given breakfast which was entirely consumed within 30 minutes. A representative breakfast includes 2 slices of buttered toast, 2 fried eggs, 2 strips of bacon, 4 oz of hash brown potatoes, and 240 mL of whole milk.
On Day 1 of each period, a standard lunch and dinner was provided at approximately 4 and 9 hours post-dose, respectively, and a snack was also offered at approximately 12 hours post-dose. On other days when confined in the CRU, standard meals and/or snacks were provided at appropriate times. When confined, subjects were required to fast from all food and drink except water between meals and snacks served at the clinical research unit.
Each meal and/or snack served at the clinical research unit was standardized and was similar in caloric content and composition (except for the meal served as part of Treatment B) and was taken at approximately the same time in each period.
For all subjects, blood samples for the determination of ATR-101 plasma concentration were collected at pre-dose and 0.5, 1, 1.5, 2, 2.5, 3, 3.5, 4, 5, 6, 8, 12, 16, 24, 36, and 48 hours post-dose. PK parameters for plasma ATR-101 were calculated as follows: • AUC0-t: The area under the plasma concentration-time curve, from time 0 to the last measurable non-zero concentration, was calculated by the linear trapezoidal method. • AUC0-inf: The area under the plasma concentration-time curve from time 0 extrapolated to infinity. AUC0-inf was calculated as the sum of AUC0-t plus the ratio of the last measurable plasma concentration to the elimination rate constant. • AUC%extrap: Percent of AUC0-inf extrapolated, represented as
[formula] • Cmax: Maximum observed concentration. • tmax: Time to reach Cmax. If the maximum value occurred at more than one time point, tmax was defined as the first time point with this value. • ke1: Apparent first-order terminal elimination rate constant calculated from a semi-log plot of the plasma concentration versus time curve. […]

[1] = Treatment C (fasting with acidic beverage), single oral 500 mg, Minimum
[2] = Treatment C (fasting with acidic beverage, Coca-Cola Classic), single oral 500 mg, individual subject, hydrochloride
[3] = individual subject, hydrochloride

Structure (SMILES): CC(C)c1cccc(C(C)C)c1NC(=O)NCC1(c2ccc(N(C)C)cc2)CCCC1 [ATR-101, N-(2,6-bis(1-methylethyl)phenyl)-N′-((1-(4-(dimethylamino)-phenyl)cyclopentyl)methyl)urea hydrochloride]
- tmax [1]: 1.50 h
- kel [1]: 0.0249
- AUC0-inf [2]: 728 and 3990 and 5760 and 2610 and 5420 and 4530 and 6970 and 2880 and 3670 and 2670 and 6680 and 5020
- AUC0-t [2]: 572 and 5100 and 2510 and 4940 and 4110 and 6430 and 2360 and 3660 and 3400 and 2250 and 6310 and 4300
- AUC% extrap [2]: 21.5% and 4.67% and 11.3% and 3.84% and 8.70% and 9.20% and 7.61% and 18.3% and 7.31% and 15.6% and 5.52% and 14.2%
- Cmax [2]: 19.8 ng/mL and 734 ng/mL and 1030 ng/mL and 438 ng/mL and 948 ng/mL and 645 ng/mL and 952 ng/mL and 461 ng/mL and 602 ng/mL and 525 ng/mL and 1550 ng/mL and 893 ng/mL
- t1/2 [2]: 17.5 h and 13.8 h and 8.2 h and 14.0 h and 18.7 h and 20.1 h and 7.9 h and 16.0 h and 26.9 h and 14.2 h and 27.1 h
- tmax [2]: 6.00 h and 3.00 h and 1.50 h and 2.50 h
- kel [2]: 0.0397 and 0.0501 and 0.0380 and 0.0496 and 0.0371 and 0.0345 and 0.0353 and 0.0249 and 0.0433 and 0.0258 and 0.0488 and 0.0256
- AUC0-inf (both sexes, human, plasma, po, 500 mg, Treatment A (fasting with water), single oral 500 mg, Geometric Mean, read-out: AUC0-inf): 3480 ng·h/mL
- AUC0-t (both sexes, human, plasma, po, 500 mg, Treatment A (fasting with water), single oral 500 mg, Geometric Mean, read-out: AUC0-t): 2710 ng·h/mL
- Cmax (both sexes, human, plasma, po, 500 mg, Treatment A (fasting with water), single oral 500 mg, Geometric Mean, read-out: Cmax): 469 ng/mL
- half-life (both sexes, human, plasma, po, 500 mg, Treatment A (fasting with water), single oral 500 mg, Mean): 17.9 h
- AUC0-inf (both sexes, human, plasma, po, 500 mg, Treatment A (fasting with water), single oral 500 mg, Mean, read-out: AUC0-inf): 3620 ng·h/mL
- AUC0-t (both sexes, human, plasma, po, 500 mg, Treatment A (fasting with water), single oral 500 mg, Mean, read-out: AUC0-t): 2970 ng·h/mL
- Cmax (both sexes, human, plasma, po, 500 mg, Treatment A (fasting with water), single oral 500 mg, Mean, read-out: Cmax): 575 ng/mL
- half-life (both sexes, human, plasma, po, 500 mg, Treatment A (fasting with water), single oral 500 mg, Median): 18.2 h
- AUC0-inf (both sexes, human, plasma, po, 500 mg, Treatment A (fasting with water), single oral 500 mg, Median, read-out: AUC0-inf): 3400 ng·h/mL
- AUC0-t (both sexes, human, plasma, po, 500 mg, Treatment A (fasting with water), single oral 500 mg, Median, read-out: AUC0-t): 2620 ng·h/mL
- Cmax (both sexes, human, plasma, po, 500 mg, Treatment A (fasting with water), single oral 500 mg, Median, read-out: Cmax): 542 ng/mL
- tmax (both sexes, human, plasma, po, 500 mg, Treatment A (fasting with water), single oral 500 mg, Median, read-out: tmax): 2 h
- AUC0-inf (both sexes, human, plasma, po, 500 mg, Treatment B (fed with water), single oral 500 mg, Geometric Mean, read-out: AUC0-inf): 6740 ng·h/mL
- AUC0-t (both sexes, human, plasma, po, 500 mg, Treatment B (fed with water), single oral 500 mg, Geometric Mean, read-out: AUC0-t): 6200 ng·h/mL
- Cmax (both sexes, human, plasma, po, 500 mg, Treatment B (fed with water), single oral 500 mg, Geometric Mean, read-out: Cmax): 1180 ng/mL
- half-life (both sexes, human, plasma, po, 500 mg, Treatment B (fed with water), single oral 500 mg, Mean): 20.4 h
- AUC0-inf (both sexes, human, plasma, po, 500 mg, Treatment B (fed with water), single oral 500 mg, Mean, read-out: AUC0-inf): 7130 ng·h/mL
- AUC0-t (both sexes, human, plasma, po, 500 mg, Treatment B (fed with water), single oral 500 mg, Mean, read-out: AUC0-t): 6560 ng·h/mL
- Cmax (both sexes, human, plasma, po, 500 mg, Treatment B (fed with water), single oral 500 mg, Mean, read-out: Cmax): 1250 ng/mL
- half-life (both sexes, human, plasma, po, 500 mg, Treatment B (fed with water), single oral 500 mg, Median): 18.9 h
- AUC0-inf (both sexes, human, plasma, po, 500 mg, Treatment B (fed with water), single oral 500 mg, Median, read-out: AUC0-inf): 6810 ng·h/mL
- AUC0-t (both sexes, human, plasma, po, 500 mg, Treatment B (fed with water), single oral 500 mg, Median, read-out: AUC0-t): 6110 ng·h/mL
- Cmax (both sexes, human, plasma, po, 500 mg, Treatment B (fed with water), single oral 500 mg, Median, read-out: Cmax): 1150 ng/mL
- tmax (both sexes, human, plasma, po, 500 mg, Treatment B (fed with water), single oral 500 mg, Median, read-out: tmax): 2.75 h
- AUC0-inf (both sexes, human, plasma, po, 500 mg, Treatment C (fasting with acidic beverage), single oral 500 mg, Geometric Mean, read-out: AUC0-inf): 3720 ng·h/mL
- AUC0-t (both sexes, human, plasma, po, 500 mg, Treatment C (fasting with acidic beverage), single oral 500 mg, Geometric Mean, read-out: AUC0-t): 3340 ng·h/mL
- Cmax (both sexes, human, plasma, po, 500 mg, Treatment C (fasting with acidic beverage), single oral 500 mg, Geometric Mean, read-out: Cmax): 558 ng/mL
- half-life (both sexes, human, plasma, po, 500 mg, Treatment C (fasting with acidic beverage), single oral 500 mg, Mean): 19.5 h
- AUC0-inf (both sexes, human, plasma, po, 500 mg, Treatment C (fasting with acidic beverage), single oral 500 mg, Mean, read-out: AUC0-inf): 4240 ng·h/mL
- AUC0-t (both sexes, human, plasma, po, 500 mg, Treatment C (fasting with acidic beverage), single oral 500 mg, Mean, read-out: AUC0-t): 3830 ng·h/mL
- Cmax (both sexes, human, plasma, po, 500 mg, Treatment C (fasting with acidic beverage), single oral 500 mg, Mean, read-out: Cmax): 728 ng/mL
- half-life (both sexes, human, plasma, po, 500 mg, Treatment C (fasting with acidic beverage), single oral 500 mg, Median): 18.4 h
- AUC0-inf (both sexes, human, plasma, po, 500 mg, Treatment C (fasting with acidic beverage), single oral 500 mg, Median, read-out: AUC0-inf): 4260 ng·h/mL
- AUC0-t (both sexes, human, plasma, po, 500 mg, Treatment C (fasting with acidic beverage), single oral 500 mg, Median, read-out: AUC0-t): 3800 ng·h/mL
- Cmax (both sexes, human, plasma, po, 500 mg, Treatment C (fasting with acidic beverage), single oral 500 mg, Median, read-out: Cmax): 666 ng/mL
- tmax (both sexes, human, plasma, po, 500 mg, Treatment C (fasting with acidic beverage), single oral 500 mg, Median, read-out: tmax): 2 h
- AUC0-t Ratio C/A (Geometric Mean): 126%
- AUC0-t Ratio C/A (Maximum): 588%
- AUC0-t Ratio C/A (Mean): 160%
- AUC0-t Ratio C/A (Median): 131%
- AUC0-t Ratio C/A (Minimum): 23.3%
- AUC0-t Ratio C/A [3]: 23.3% and 120% and 134% and 101% and 588% and 187% and 132% and 155% and 89.3% and 130% and 143% and 111%
- increase in systemic exposure (fed state (Treatment B) compared to fasting state with acidic beverage (Treatment C)): 108%
- increase in systemic exposure (fed state (Treatment B) compared to fasting state with water (Treatment A)): 153%
- AUC0-t Ratio B/C (Geometric Mean): 184%
- AUC0-t Ratio B/C (Maximum): 615%
- AUC0-t Ratio B/C (Mean): 208%
- AUC0-t Ratio B/C (Median): 156%
- AUC0-t Ratio B/C (Minimum): 83.2%
- AUC0-t Ratio B/C [3]: 615% and 156% (2×) and 258% and 210% and 83.2% and 168% and 131% and 267% and 148% and 211% and 147% and 153%
- AUC0-t Ratio B/A (Geometric Mean): 233%
- AUC0-t Ratio B/A (Maximum): 490%
- AUC0-t Ratio B/A (Mean): 253%
- AUC0-t Ratio B/A (Median): 211%
- AUC0-t Ratio B/A (Minimum): 132%
- AUC0-t Ratio B/A [3]: 144% and 187% and 346% and 212% and 490% and 313% and 173% and 292% and 415% and 132% and 203% and 211% and 169%
